System: patients with prior myocardial infarction (CARE study)
Assay: CARE: association of SNPs with pravastatin treatment in cardiovascular events prevention (logistic regression, odds ratio pravastatin vs placebo by genotype; Table 8)
Format: in vivo, human
Conditions: for MI (Fatal/Nonfatal), n/total (%) / Nonfatal MI (Probable/Definite), n/total (%) / Nonfatal MI (def & prob), n/total (%) / Fatal/Nonfatal MI (def & prob), n/total (%) / Hosp. for Unstable Angina, n/total (%): MJD hCV16189421, All Patients; for MI (Fatal/Nonfatal), n/total (%) / Nonfatal MI (Probable/Definite), n/total (%) / Nonfatal MI (def & prob), n/total (%) / Fatal/Nonfatal MI (def & prob), n/total (%) / Hosp. for Unstable Angina, n/total (%) / Percutaneous Transluminal Coronary Angioplas, n/total (%) / Fatal/Nonfatal Cerebrovascular Disease, n/total (%): Prava arm; for Percutaneous Transluminal Coronary Angioplas, n/total (%): MMP27 hCV7492601, All Patients; for Total Coronary Heart Disease Events, n/total (%) / Fatal/Non-fatal Atherosclerotic CV Disease, n/total (%) / Hosp. for Cardiovascular Disease, n/total (%) / Total Cardiovascular Disease Events, n/total (%) / Prava vs. Placebo Odds Ratio, 0 Rare Alleles / Prava vs. Placebo Odds Ratio, 1 Rare Alleles / Prava vs. Placebo Odds Ratio, 2 Rare Alleles / Fatal Atherosclerotic Cardiovascular Disease, n/total (%) / Cardiovascular Mortality, n/total (%): All Patients; for Total Coronary Heart Disease Events, n/total (%) / Fatal/Non-fatal Atherosclerotic CV Disease, n/total (%) / Hosp. for Cardiovascular Disease, n/total (%) / Total Cardiovascular Disease Events, n/total (%) / Fatal Atherosclerotic Cardiovascular Disease, n/total (%) / Cardiovascular Mortality, n/total (%): Prava; for Fatal/Nonfatal Cerebrovascular Disease, n/total (%): NID2 hCV15876071, All Patients
Excerpt: In order to identify genetic markers associated with acute coronary events (e.g. MI, stroke, unstable angina, congestive heart failure, etc.) or response to statin treatment for the prevention of coronary events, samples from the Cholesterol and Recurrent Events (CARE) study (a randomized multicentral double-blinded trial on secondary prevention of acute coronary events with pravastatin) (Sacks et al., 1991, Am. J. Cardiol. 68: 1436-1446) were genotyped. A well-documented myocardial infarction (MI) was one of the enrollment criteria for entry into the CARE study. Patients were enrolled in the CARE trial from 80 participating study centers. […] Patients were randomized to receive either 40 mg of pravastatin once daily or a matching placebo. The primary endpoint of the trial was death from coronary heart disease and the median duration of follow-up was 5.0 years (range, 4.0 to 6.2 years). […] Secondary endpoints of other related cardiovascular or metabolic disease events, and changes in clinical variables were also recorded in pravastatin-treated and placebo groups. All individuals included in the study had signed a written informed consent form and the study protocol was approved by the respective Institutional Review Boards (IRBs).
For genotyping SNPs in CARE patient samples, DNA was extracted from blood samples using conventional DNA extraction methods such as the QIA-amp kit from Qiagen. Genotypes were obtained on an ABI PRISM® 7900HT Sequence Detection PCR system (Applied Biosystems, Foster City, Calif.) by kinetic allele-specific PCR, similar to the method described by Germer et al. (Germer S., Holland M. J., Higuchi R. 2000, Genome Res. 10: 258-266).
Statistical analysis for association of SNPs with pravastatin treatment in cardiovascular events prevention (Table 8) was carried out using an overall logistic regression model that included an intercept, a parameter for the effect of a genotype containing two rare alleles versus a genotype containing no rare alleles, a parameter for the effect of a genotype containing one rare allele versus a genotype containing no rare alleles, a parameter for the effect of use of pravastatin versus the use of placebo, and parameters for the interaction effects between SNP genotypes and pravastatin use. The test of the overall model is a chi-square test with two degrees of freedom for analyses containing all three genotypes, and one degree of freedom for analyses containing two genotypes.
Effect sizes were estimated through odds ratios (pravastatin group versus placebo) for carriers of each genotype (groups of 0, 1, and 2 minor allele carriers). The effect was considered to be significant if p-value for testing whether any of the interactions between SNP genotypes and pravastatin use were <0.05. […] Odds ratios less than one indicate that the specific SNP allele has a protective effect and odds ratios greater than one indicate that the specific SNP allele has an adverse effect.

[1] = MTRR hCV7580070, 2 Rare Alleles, n/total 2/22
[2] = MTRR hCV7580070, 2 Rare Alleles, n/total 5/22
[3] = MTRR hCV7580070, Fatal/Non-fatal Atherosclerotic CV Disease
[4] = MTRR hCV7580070, Hosp. for Cardiovascular Disease
[5] = MTRR hCV7580070, Total Cardiovascular Disease Events
[6] = MTRR hCV7580070, Total Coronary Heart Disease Events
[7] = NPC1 hCV7490135, 1 Rare Allele, n/total 26/742
[8] = NPC1 hCV7490135, 2 Rare Alleles, n/total 3/324

## CC[C@H](C)C(=O)O[C@H]1C[C@H](O)C=C2C=C[C@H](C)[C@H](CC[C@@H](O)C[C@@H](O)CC(=O)O)[C@H]21 [pravastatin]
0 Rare Alleles
  MI (Fatal/Nonfatal), n/total (%): (8.6%)
  Nonfatal MI (Probable/Definite), n/total (%): (8.0%)
  Nonfatal MI (def & prob), n/total (%): (7.5%)
  Percutaneous Transluminal Coronary Angioplas, n/total (%): (9.7%)
  Fatal/Nonfatal Cerebrovascular Disease, n/total (%): (5.7%)
1 Rare Allele
  Fatal/Nonfatal MI (def & prob), n/total (%): (11.9%)
  Hosp. for Unstable Angina, n/total (%): (17.6%)
  MI (Fatal/Nonfatal), n/total (%): (12.1%)
  Nonfatal MI (Probable/Definite), n/total (%): (11.3%)
  Nonfatal MI (def & prob), n/total (%): (11.2%)
  Percutaneous Transluminal Coronary Angioplas, n/total (%): (9.1%)
  Fatal/Nonfatal Cerebrovascular Disease, n/total (%): (4.1%)
2 Rare Alleles
  Fatal/Nonfatal MI (def & prob), n/total (%): (11.2%)
  Hosp. for Unstable Angina, n/total (%): (10.1%)
  MI (Fatal/Nonfatal), n/total (%): (11.2%)
  Nonfatal MI (Probable/Definite), n/total (%): (11.2%)
  Nonfatal MI (def & prob), n/total (%): (11.2%)
  Percutaneous Transluminal Coronary Angioplas, n/total (%): (8.2%)
  Fatal/Nonfatal Cerebrovascular Disease, n/total (%): (1.7%)
MTRR hCV7580070, 0 Rare Alleles, n/total 338/1201
  Total Coronary Heart Disease Events, n/total (%): (28.1%)
MTRR hCV7580070, 0 Rare Alleles, n/total 390/1201
  Fatal/Non-fatal Atherosclerotic CV Disease, n/total (%): (32.5%)
MTRR hCV7580070, 0 Rare Alleles, n/total 466/1201
  Hosp. for Cardiovascular Disease, n/total (%): (38.8%)
MTRR hCV7580070, 0 Rare Alleles, n/total 480/1201
  Total Cardiovascular Disease Events, n/total (%): (40.0%)
MTRR hCV7580070, 1 Rare Allele, n/total 98/284
  Total Coronary Heart Disease Events, n/total (%): (34.5%)
MTRR hCV7580070, 1 Rare Allele, n/total 110/284
  Fatal/Non-fatal Atherosclerotic CV Disease, n/total (%): (38.7%)
MTRR hCV7580070, 1 Rare Allele, n/total 135/284
  Hosp. for Cardiovascular Disease, n/total (%): (47.5%)
MTRR hCV7580070, 1 Rare Allele, n/total 137/284
  Total Cardiovascular Disease Events, n/total (%): (48.2%)
[1]
  Fatal/Non-fatal Atherosclerotic CV Disease, n/total (%): (9.1%)
  Total Coronary Heart Disease Events, n/total (%): (9.1%)
[2]
  Hosp. for Cardiovascular Disease, n/total (%): (22.7%)
  Total Cardiovascular Disease Events, n/total (%): (22.7%)
[3]
  Prava vs. Placebo Odds Ratio, 0 Rare Alleles: 0.74
  Prava vs. Placebo Odds Ratio, 1 Rare Alleles: 0.95
  Prava vs. Placebo Odds Ratio, 2 Rare Alleles: 0.09
[4]
  Prava vs. Placebo Odds Ratio, 0 Rare Alleles: 0.71
  Prava vs. Placebo Odds Ratio, 1 Rare Alleles: 1.04
  Prava vs. Placebo Odds Ratio, 2 Rare Alleles: 0.22
[5]
  Prava vs. Placebo Odds Ratio, 0 Rare Alleles: 0.71
  Prava vs. Placebo Odds Ratio, 1 Rare Alleles: 1.01
  Prava vs. Placebo Odds Ratio, 2 Rare Alleles: 0.22
[6]
  Prava vs. Placebo Odds Ratio, 0 Rare Alleles: 0.73
  Prava vs. Placebo Odds Ratio, 1 Rare Alleles: 1.00
  Prava vs. Placebo Odds Ratio, 2 Rare Alleles: 0.12
NPC1 hCV7490135, 0 Rare Alleles, n/total 25/437
  Fatal Atherosclerotic Cardiovascular Disease, n/total (%): (5.7%)
NPC1 hCV7490135, 0 Rare Alleles, n/total 26/437
  Cardiovascular Mortality, n/total (%): (5.9%)
NPC1 hCV7490135, 0 Rare Alleles, n/total 146/437
  Total Coronary Heart Disease Events, n/total (%): (33.4%)
NPC1 hCV7490135, 0 Rare Alleles, n/total 165/437
  Fatal/Non-fatal Atherosclerotic CV Disease, n/total (%): (37.8%)
NPC1 hCV7490135, 0 Rare Alleles, n/total 194/437
  Hosp. for Cardiovascular Disease, n/total (%): (44.4%)
NPC1 hCV7490135, 0 Rare Alleles, n/total 202/437
  Total Cardiovascular Disease Events, n/total (%): (46.2%)
[7]
  Cardiovascular Mortality, n/total (%): (3.5%)
  Fatal Atherosclerotic Cardiovascular Disease, n/total (%): (3.5%)
NPC1 hCV7490135, 1 Rare Allele, n/total 213/742
  Total Coronary Heart Disease Events, n/total (%): (28.7%)
NPC1 hCV7490135, 1 Rare Allele, n/total 246/742
  Fatal/Non-fatal Atherosclerotic CV Disease, n/total (%): (33.2%)
NPC1 hCV7490135, 1 Rare Allele, n/total 295/742
  Hosp. for Cardiovascular Disease, n/total (%): (39.8%)
NPC1 hCV7490135, 1 Rare Allele, n/total 303/742
  Total Cardiovascular Disease Events, n/total (%): (40.8%)
[8]
  Cardiovascular Mortality, n/total (%): (0.9%)
  Fatal Atherosclerotic Cardiovascular Disease, n/total (%): (0.9%)
NPC1 hCV7490135, 2 Rare Alleles, n/total 81/324
  Total Coronary Heart Disease Events, n/total (%): (25.0%)
